In patent US8822674B2, “Crystal form of 4-isopropylphenyl glucitol compound and process for production thereof” (Taisho Pharmaceutical Co., Ltd, priority 2010, dated 2014):

Assays:
[1] = target: T1, human SGLT1 (Homo sapiens, UniProt P13866); assay: Inhibition test for sodium-dependent sugar uptake in CHO-K1 cells stably expressing human SGLT1; type: cell-based; conditions: summary of Table 1
T1 construct: expressed in transfected cells; host or cells: CHO-K1
T1 sequence (P13866 1-664): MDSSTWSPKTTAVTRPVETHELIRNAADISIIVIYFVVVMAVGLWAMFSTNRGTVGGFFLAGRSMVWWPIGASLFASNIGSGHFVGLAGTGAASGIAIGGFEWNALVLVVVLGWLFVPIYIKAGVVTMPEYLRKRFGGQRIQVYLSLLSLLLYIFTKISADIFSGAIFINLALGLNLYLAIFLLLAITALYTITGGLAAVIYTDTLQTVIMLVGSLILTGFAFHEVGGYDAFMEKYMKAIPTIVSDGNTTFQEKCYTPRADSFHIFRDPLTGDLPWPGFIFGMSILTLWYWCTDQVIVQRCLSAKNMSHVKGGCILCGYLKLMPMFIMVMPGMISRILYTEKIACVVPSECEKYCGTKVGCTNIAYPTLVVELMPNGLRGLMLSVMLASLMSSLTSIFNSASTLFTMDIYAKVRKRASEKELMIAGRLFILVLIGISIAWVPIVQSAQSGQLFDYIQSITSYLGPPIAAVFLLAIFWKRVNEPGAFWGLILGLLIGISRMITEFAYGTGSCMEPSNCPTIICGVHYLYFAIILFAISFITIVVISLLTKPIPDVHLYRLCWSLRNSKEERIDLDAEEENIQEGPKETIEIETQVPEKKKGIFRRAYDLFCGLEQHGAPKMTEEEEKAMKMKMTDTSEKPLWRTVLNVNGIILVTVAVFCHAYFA
Description: (§1) A plasmid vector expressing human SGLT1 protein was transfected into CHO-K1 cells using lipofectamine 2000 (Invitrogen). The cells were cultured in the presence of 500 μg/mL geneticin to select resistant strains, followed by screening in the system shown below using sugar uptake capacity as an indicator to obtain SGLT1-expressing cells.
(§2) The stably expressing cells prepared above were used in the following test.
Pretreatment buffer (140 mM choline chloride, 2 mM KCl, 1 mM CaCl2, 1 mM MgCl2, 10 mM HEPES/5 mM Tris, pH 7.4) was added in a volume of 200 μL to the cells stably expressing SGLT1 or 2 mL for Method A and 200 μL for Method B to the cells stably expressing SGLT2, followed by incubation for 20 minutes. The pretreatment buffer was removed and replaced by uptake buffer containing a test compound (1 mM methyl α-D-glucopyranoside (containing [^14C]methyl α-D-glucopyranoside), 140 mM NaCl, 2 mM KCl, 1 mM CaCl2, 1 mM MgCl2, 10 mM HEPES/5 mM Tris, pH 7.4) in a volume of 75 μL for SGLT1 and SGLT2 in Method B or 200 μL for SGLT2 in Method A. Uptake reaction was performed at 37° C. for 30 minutes (SGLT1) or 60 minutes (SGLT2). […] A liquid scintillator (Perkin Elmer) was added and mixed well with each sample, followed by measurement of radioactivity using a β-ray analyzer. […]

[2] = target: T2, human SGLT2 protein modified to have LeuGluSerArgGlyProVal added to the carboxy-terminal final residue (Homo sapiens, UniProt P31639); assay: Inhibition test for sodium-dependent sugar uptake in CHO-K1 cells stably expressing human SGLT2, Method A; type: cell-based; conditions: summary of Table 1; method not specified
T2 construct: expressed in transfected cells; host or cells: CHO-K1
T2 sequence (P31639 with tags, fused parts or gaps): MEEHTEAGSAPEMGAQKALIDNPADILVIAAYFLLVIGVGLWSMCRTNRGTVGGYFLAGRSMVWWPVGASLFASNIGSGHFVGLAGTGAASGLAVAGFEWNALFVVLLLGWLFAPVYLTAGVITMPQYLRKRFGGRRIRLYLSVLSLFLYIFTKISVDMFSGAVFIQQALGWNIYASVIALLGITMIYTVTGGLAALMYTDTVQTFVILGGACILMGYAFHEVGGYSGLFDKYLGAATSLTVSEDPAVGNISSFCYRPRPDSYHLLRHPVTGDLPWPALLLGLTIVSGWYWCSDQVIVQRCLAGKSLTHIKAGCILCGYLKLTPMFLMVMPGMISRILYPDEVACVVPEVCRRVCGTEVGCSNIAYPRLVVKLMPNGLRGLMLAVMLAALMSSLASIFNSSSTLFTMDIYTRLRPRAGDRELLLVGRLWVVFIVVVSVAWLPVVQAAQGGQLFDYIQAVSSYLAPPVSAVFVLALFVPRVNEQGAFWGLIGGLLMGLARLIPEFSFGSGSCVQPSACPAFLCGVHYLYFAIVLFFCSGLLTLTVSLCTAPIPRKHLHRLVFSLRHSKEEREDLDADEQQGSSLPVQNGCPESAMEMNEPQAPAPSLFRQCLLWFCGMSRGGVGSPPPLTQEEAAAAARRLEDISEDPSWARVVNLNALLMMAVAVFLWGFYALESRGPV
Description: as §1, with “Method A (described in WO2007/136116): A” for “A”, “SGLT2” for “SGLT1”, “protein modified to have LeuGluSerArgGlyProVal added to the carboxy-terminal final residue” for “protein”, “hygromycin B” for “geneticin”, “SGLT2-expressing” for “SGLT1-expressing”
as §2
Pretreatment buffer (140 mM choline chloride, 2 mM KCl, 1 mM CaCl2, 1 mM MgCl2, 10 mM HEPES/5 mM Tris, pH 7.4) was added in a volume of 200 μL to the cells stably expressing SGLT1 or 2 mL for Method A and 200 μL for Method B to the cells stably expressing SGLT2, followed by incubation for 20 minutes. […] A liquid scintillator (Perkin Elmer) was added and mixed well with each sample, followed by measurement of radioactivity using a β-ray analyzer. […]

[3] = system: streptozotocin (STZ)-induced diabetic rats; assay: Oral glucose tolerance test in streptozotocin diabetic model rats; type: in vivo, rat
Description: SD/IGS rats at 7 weeks of age (male, Charles River Laboratories Japan Inc.) were fasted for about 16 hours and then injected with 50 mg/kg streptozotocin (STZ) via the caudal vein under ether anesthesia to prepare diabetic model rats. Similarly, another group of SD/IGS rats at 7 weeks of age was injected with 1.25 mmol/L citric acid in physiological saline (1 mL/kg) via the tail vein under ether anesthesia to prepare normal control rats. At one week after injection of STZ or 1.25 mmol/L citric acid in physiological saline, the rats (8 weeks old) were provided for an oral glucose tolerance test. […]
Blood was collected from the caudal veins of the rats under ether anesthesia with the use of a heparin-coated blood collecting tube and centrifuged, whereafter blood plasma was separated. Plasma glucose concentrations were quantified by measurement with a Glucose CII-Test Wako (Wako Pure Chemical Industries, Ltd., Japan). To determine the intensity of hypoglycemic effect, the blood glucose level before drug administration was subtracted from each blood glucose level measured until one hour after oral administration in each drug group, and the resulting values were analyzed by the trapezoidal method to calculate an increment in the area under the curve for glucose (ΔAUC), which was expressed as a decrease relative to ΔAUC of the control group.

[4] = Renal concentration after repeated oral administration for 3 days; type: in vivo, rat; conditions: 3 mg/kg for 3 consecutive days, subsequent day 2
Description: At 48 hours after the final drug administration, the rats were exsanguinated via the postcaval vein under isoflurane anesthesia, and their kidneys were excised after they were confirmed to be euthanized. After the tissue surface was washed with physiological saline, each tissue was measured for its weight and homogenized in 4 volumes of purified water under ice cooling. The drug concentration in each homogenate was determined in the same manner as shown in Test Example 3(1) by LC-MS/MS using compound II as an internal standard substance.

[5] = Renal concentrations until one week after single oral administration; type: in vivo; conditions: Sprague-Dawley (SD/IGS), rat, 1 mg/kg po, male Sprague-Dawley rats, kidney
Description: SD/IGS rats at 7 weeks of age (male, non-fasting, Charles River Laboratories Japan Inc.) were orally administered with compound 4, 10 or 33 (1 mg/kg each) or compound 11 (0.3 mg/kg) prepared in a 0.5% aqueous CMC solution. At 24, 72 and 168 hours after drug administration, the rats were exsanguinated via the postcaval vein under ether anesthesia, and their kidneys were excised after they were confirmed to be euthanized. After the tissue surface was washed with physiological saline, each tissue was measured for its weight and homogenized in 4 volumes of purified water under ice cooling. To each homogenate, an acetonitrile/methanol solution containing an internal standard substance was added to remove proteins, and the supernatant was then subjected to LC-MS/MS (Applied Biosystems API3000). Drug-derived ions generated by electrospray ionization in positive ion mode were detected by selective reaction monitoring. The peak area of the resulting extracted ion chromatogram was analyzed by the internal standard method to calculate the drug concentration in the homogenate.
As the internal standard material for Compounds 10 and 33, (1S)-1,5-anhydro-1-[5-(4-ethoxybenzyl)-2-methoxy-4-methylphenyl]-1-thio-D-glucitol,ethyl-D5 was used. As the internal standard materials for Compounds 4 and 11, Compound II and deuterium-labeled Compound II (trishydroxymethyl-D6; —C(CD2OH)3), respectively, were used.

| SGLT1 inhibiting activity (in words) [1] | SGLT2 inhibiting activity (in words) [2] | remaining in the kidney after repeated administration (in words) [4] | concentration at 1 day ([5]; 1 day, read-out: Concentration of compounds in kidney after single oral administration, After 1 day) [ng/g] | concentration at 3 days ([5]; 3 days, read-out: Concentration of compounds in kidney after single oral administration, After 3 days) [ng/g] | concentration at 7 days ([5]; 7 days, read-out: Concentration of compounds in kidney after single oral administration, After 7 days) [ng/g] | Structure (SMILES) | STZ rats OGTT % inhibition ΔAUC0−1 h (mg/dl) @1 mg/kg/po ([3]; STZ-induced diabetic rats, oral dose 1 mg/kg, glucose 2 g/kg, versus vehicle control) [%] | hypoglycemic action in the glucose tolerance test (in words) ([3]; oral administration of 1 mg/kg) |
| --- | --- | --- | --- | --- | --- | --- | --- | --- |
| strong | some, although weak | did not remain in the kidney |  |  |  | COc1cc(C(C)C)c(Cc2ccc(/C=C/C(C)(C)C(=O)NC(C)(C)C(=O)NCCN(C)C)cc2)cc1[C@@H]1O[C@H](CO)[C@@H](O)[C@H](O)[C@H]1O [compound (A), (1S)-1,5-anhydro-1-[5-(4-{(1E)-4-[(1-{[2-(dimethylamino)ethyl]amino}-2-methyl-1-oxopropan-2-yl)amino]-3,3-dimethyl-4-oxobut-1-en-1-yl}benzyl)-2-methoxy-4-(propan-2-yl)phenyl]-D-glucitol] | 65 | potent |
|  |  |  | 68.4 ± 7.49 | 85.5 ± 23.1 | 76.3 ± 15.5 | Cc1cc(O)c([C@@H]2O[C@H](CO)[C@@H](O)[C@H](O)[C@H]2O)cc1Cc1ccc(CCCC(=O)NC(C)(C)C(N)=O)cc1 [compound 4] |  |  |
